# Patent US8114867B2, “Oxazolidinone antibiotic derivatives” (Actelion Pharmaceuticals Ltd, priority 2007, dated 2012)
# System: S. aureus 29213
# Assay: MIC by broth microdilution (NCCLS), S. aureus 29213
# Assay type: cell-based
# Conditions: Staphylococcus aureus, strain S. aureus 29213, cation-adjusted Mueller-Hinton Broth, pH 7.2-7.3
# Procedure: These assays have been performed following the description given in “Methods for dilution Antimicrobial Susceptibility Tests for Bacteria that Grow Aerobically, 4th ed.; Approved standard: NCCLS Document M7-A4; National Committee for Clinical Laboratory Standards: Villanova, Pa., USA, 1997”. Minimal inhibitory concentrations (MICs; mg/l) were determined in cation-adjusted Mueller-Hinton Broth (BBL) by a microdilution method following NCCLS guidelines (National Committee for Clinical Laboratory Standards. Methods for Dilution Antimicrobial Susceptibility). The pH of the test medium was 7.2-7.3.
row,Structure (SMILES),MIC [µg/mL]
1,"COc1cnc2cccc(C(O)CN(C)C[C@@H](O)[C@H]3CN(c4ccc5c(c4)OCCO5)C(=O)O3)c2n1 (relative stereo) [Example 100, (R*)-3-(2,3-dihydro-benzo[1,4]dioxin-6-yl)-(R*)-5-(1-hydroxy-2-{[(RS)-2-hydroxy-2-(3-methoxy-quinoxalin-5-yl)-ethyl]-methyl-amino}-ethyl)-oxazolidin-2-one]",≤ 0.063
2,"COc1ccc2ncc(F)c(CNCC[C@@H](N)[C@@H]3CN(c4ccc5c(c4)OCCO5)C(=O)O3)c2n1 (relative stereo) [Example 107, (S*)-5-{(R*)-1-amino-3-[(3-fluoro-6-methoxy-[1,5]naphthyridin-4-ylmethyl)-amino]-propyl}-3-(2,3-dihydro-benzo[1,4]dioxin-6-yl)-oxazolidin-2-one]",≤ 0.063
3,"COc1ccc2nccc(CCCC[C@@H](O)[C@H]3CN(c4ccc5c(c4)OCCO5)C(=O)O3)c2n1 (relative stereo) [Example 111, (R*)-3-(2,3-dihydro-benzo[1,4]dioxin-6-yl)-5-[(R*)-1-hydroxy-5-(6-methoxy-[1,5]naphthyridin-4-yl)-pentyl]-oxazolidin-2-one]",≤ 0.063
4,"COc1cnc2cccc(/C=C/C(=O)NC[C@@H]3CN(c4ccc5c(c4)OCCO5)C(=O)O3)c2n1 [Example 5, (E)-N-[(R)-3-(2,3-dihydro-benzo[1,4]dioxin-6-yl)-2-oxo-oxazolidin-5-ylmethyl]-3-(3-methoxy-quinoxalin-5-yl)-acrylamide]",≤ 0.063
5,"CCc1ccc(N2C[C@@H](CN(C)C(=O)/C=C/c3ccnc4ccc(OC)nc34)OC2=O)cc1 [Example 14, (E)-N-[(R)-3-(4-ethyl-phenyl)-2-oxo-oxazolidin-5-ylmethyl]-3-(6-methoxy-[1,5]naphthyridin-4-yl)-N-methyl-acrylamide]",≤ 0.063
6,"N#Cc1ccc2cccc(/C=C/C(=O)NC[C@@H]3CN(c4ccc5c(c4)OCCO5)C(=O)O3)c2n1 [Example 16, (E)-3-(2-cyano-quinolin-8-yl)-N-[(R)-3-(2,3-dihydro-benzo[1,4]dioxin-6-yl)-2-oxo-oxazolidin-5-ylmethyl]-acrylamide]",0.125
7,"COc1ccc2nccc(/C=C/C(=O)N(C)C[C@@H]3CN(c4ccc(Br)c(F)c4)C(=O)O3)c2n1 [Example 22, (E)-N-[(R)-3-(4-bromo-3-fluoro-phenyl)-2-oxo-oxazolidin-5-ylmethyl]-3-(6-methoxy-[1,5]naphthyridin-4-yl)-N-methyl-acrylamide]",≤ 0.063
8,"COc1cnc2cccc(CCC(=O)NC[C@@H]3CN(c4ccc5c(c4)NC(=O)CS5)C(=O)O3)c2c1 [Example 28, 3-(3-methoxy-quinolin-5-yl)-N-[(R)-2-oxo-3-(3-oxo-3,4-dihydro-2H-benzo[1,4]thiazin-6-yl)-oxazolidin-5-ylmethyl]-propionamide]",≤ 0.063
9,"COc1ccc2nccc(/C=C/CNC[C@@H]3CN(c4ccc5c(c4)OCCO5)C(=O)O3)c2n1 [Example 29, (R)-3-(2,3-dihydro-benzo[1,4]dioxin-6-yl)-5-{[(E)-3-(6-methoxy-[1,5]naphthyridin-4-yl)-allylamino]-methyl}-oxazolidin-2-one]",≤ 0.063
10,"COc1cnc2cccc(CCCNC[C@@H]3CN(c4ccc5c(c4)NC(=O)CS5)C(=O)O3)c2c1 [Example 35, 6-((R)-5-{[3-(3-methoxy-quinolin-5-yl)-propylamino]-methyl}-2-oxo-oxazolidin-3-yl)-4H-benzo[1,4]thiazin-3-one]",≤ 0.063
11,"CCC(=O)N(CCCc1ccnc2ccc(OC)nc12)C[C@@H]1CN(c2ccc3c(c2)NC(=O)CS3)C(=O)O1 [Example 38, N-[3-(6-methoxy-[1,5]naphthyridin-4-yl)-propyl]-N-[(R)-2-oxo-3-(3-oxo-3,4-dihydro-2H-benzo[1,4]thiazin-6-yl)-oxazolidin-5-ylmethyl]-propionamide]",≤ 0.063
12,"COc1cnc2cccc(CCCN(C)C[C@@H]3CN(c4ccc(C)c(F)c4)C(=O)O3)c2c1 [Example 43, (R)-3-(3-fluoro-4-methyl-phenyl)-5-({[3-(3-methoxy-quinolin-5-yl)-propyl]-methyl-amino}-methyl)-oxazolidin-2-one]",≤ 0.063
13,"COc1ccc2ncc(F)c(C(O)CCCCC3CN(c4ccc5c(c4)OCCO5)C(=O)O3)c2n1 (centres unmarked) [Example 62, 3-(2,3-dihydro-benzo[1,4]dioxin-6-yl)-5-[5-(3-fluoro-6-methoxy-[1,5]naphthyridin-4-yl)-5-hydroxy-pentyl]-oxazolidin-2-one]",≤ 0.063
14,"COc1ccc2nccc(NC(=O)CNC[C@@H]3CN(c4ccc5c(c4)NC(=O)CS5)C(=O)O3)c2n1 [Example 91, N-(6-methoxy-[1,5]naphthyridin-4-yl)-2-{[(R)-2-oxo-3-(3-oxo-3,4-dihydro-2H-benzo[1,4]thiazin-6-yl)-oxazolidin-5-ylmethyl]-amino}-acetamide]",≤ 0.063
15,"COc1ccc2nccc(CCCCNC[C@@H]3CN(c4ccc5c(c4)NC(=O)CS5)C(=O)O3)c2n1 [Example 113, 6-((R)-5-{[4-(6-methoxy-[1,5]naphthyridin-4-yl)-butylamino]-methyl}-2-oxo-oxazolidin-3-yl)-4H-benzo[1,4]thiazin-3-one]",≤ 0.063
16,"COc1ccc2nccc(CCCCC[C@@H]3CN(c4ccc5c(c4)NC(=O)CS5)C(=O)O3)c2n1 [Example 125, 6-{(R)-5-[5-(6-methoxy-[1,5]naphthyridin-4-yl)-pentyl]-2-oxo-oxazolidin-3-yl}-4H-benzo[1,4]thiazin-3-one]",≤ 0.063
17,"COc1ccc2ncc(F)c(CCCN(C[C@H](O)CO)C[C@@H]3CN(c4ccc5c(c4)OCCO5)C(=O)O3)c2n1 [Example 135, (R)-3-(2,3-dihydro-benzo[1,4]dioxin-6-yl)-5-({((S)-2,3-dihydroxy-propyl)-[3-(3-fluoro-6-methoxy-[1,5]naphthyridin-4-yl)-propyl]-amino}-methyl)-oxazolidin-2-one]",≤ 0.063
18,"COc1ccc2ncc(F)c(CN(CCO)CCC[C@@H]3CN(c4ccc5c(c4)NC(=O)CO5)C(=O)O3)c2n1 [Example 179, 6-((R)-5-{3-[(3-fluoro-6-methoxy-[1,5]naphthyridin-4-ylmethyl)-(2-hydroxy-ethyl)-amino]-propyl}-2-oxo-oxazolidin-3-yl)-4H-benzo[1,4]oxazin-3-one]",≤ 0.063
19,"COc1ccc2ncc(F)c(CNC[C@H](O)[C@@H](O)[C@@H]3CN(c4ccc5c(c4)OCCO5)C(=O)O3)c2c1 [Example 181, (S)-3-(2,3-dihydro-benzo[1,4]dioxin-6-yl)-5-{(1R,2S)-3-[(3-fluoro-6-methoxy-quinolin-4-ylmethyl)-amino]-1,2-dihydroxy-propyl}-oxazolidin-2-one]",≤ 0.063
20,"COc1ccc2nccc(NCCNC[C@@H]3CN(c4ccc5c(c4)NC(=O)CS5)C(=O)O3)c2n1 [Example 201, 6-((R)-5-{[2-(6-methoxy-[1,5]naphthyridin-4-ylamino)-ethylamino]-methyl}-2-oxo-oxazolidin-3-yl)-4H-benzo[1,4]thiazin-3-one]",≤ 0.063
